Data from US10344330B2, “Glatiramer acetate response biomarker mRNA potency assay” (Mylan Inc., priority 2013, dated 2019).

Key:
Type in all cases: cell-based
[1] = test system: mouse IL-2 mRNA in primary LN cells; assay: Validation: mouse IL-2 mRNA by real-time PCR in LN cells of GA-immunized SJL/J mice, three experiments (Example IV); settings: for induction of IL-2 mRNA: 20 μg/mL GA, 6 hours; for IL-2 mRNA Fold Change: normalized to GAPDH
Procedure: (§1) Three experiments were conducted using one batch of GA (Mylan GMA). The primary LN cells were stimulated by incubation with 6 concentrations (0.3 to 20 μg/mL) of the GA for 6 hours at 37° C. Total RNA was isolated from LN cells stimulated with GA or controls. cDNA was synthesized from the RNA and the mRNA levels of seven mouse cytokines, IL-2, IL-4, IL-5, IL-10, IL-13, interferon (IFN)-γ and tumor necrosis factor (TNF)-α, were quantitatively measured by a real-time PCR method.
(§2) Female SJL/J mice at 8-9 weeks of age were immunized by injection into four footpads using a 1 mL syringe with a 27-G, ½-inch needle. Each mouse received a total injection volume of 0.1 mL of GMA emulsified in CFA (about 10 μL into each of the front footpads and 40 μL into each of the hind footpads). Animals were immunized on Day 0. After injection, animals were placed back in their cages and housed ≤6 animals per cage.
(§3) Immunized animals were sacrificed by cervical dislocation on Day 10 following immunization. […] After centrifugation at about 200×g for 10 minutes at 4° C., the cell pellet was re-suspended in 40 mL of DCCM-1 medium for cell counting. A Trypan blue exclusion method was used to determine the cell density of viable cells in the suspension. After cell counting, the LN cells were suspended in enriched DCCM-1 medium at density of 7.5×10^6 cells/mL. LN cells (0.12 mL) were plated into each well of 96-well tissue culture plates.
(§4) Dilutions of GA (Mylan GMA) were prepared using enriched DCCM-1 medium as the diluent. GA dilutions (0.12 mL) were added in the assigned wells of 96-well tissue culture plates. The same volume of LN cells (0.12 mL) isolated from immunized animals was added to the assigned wells. A positive control and a negative control were always performed in the same assay by treating LN cells with 2.5 μg/mL ConA and 10 μg/mL MBP, respectively. The LN cells with mock stimulation protocols (enriched DCCM-1 medium) were used to monitor the background mRNA level of a cytokine. The plates were incubated at 37° C. in a humidified 5% CO2 incubator for 6 hr.
(§5) At the end of incubation time, culture medium from stimulated cells was removed by aspiration and the cells were lysed using Qiagen or Promega lysis buffer. The lysate was transferred to an RNeasy Mini column (Qiagen) or wells of the SV 96 Binding Plate (Promega) for RNA isolation and cDNA synthesis. All tested samples were run in triplicate.
(§6) The SV 96 Total RNA Isolation System (Promega; Cat. No. Z3505) was used for total RNA isolation. Assay procedures were carried out according to each manufacturer's protocol. RNA samples were stored at −70° C. until use. […] The assay procedure was carried out according to the manufacturer's protocol.
(§7) The plate was centrifuged at 2000 rpm for 2 minutes at 4° C. to spin down the contents and eliminate air bubbles. Samples were prepared and run in a 96-well plate using a Life Technologies Real-Time PCR system (previously Applied Biosystems; Model No. 7500) according to the manufacturer's recommendation. The mix for the reference gene was prepared in the same way using the reference gene primer.
(§8) A relative quantitation method was used to analyze changes in mIL-2, mIL-4, mIL-5, mIL-10, mIL-13, mIFN-γ and TNF-α expression in GA treated samples relative to the untreated control (Enriched DCCM-1 treated) samples using the following program:
(§9) Levels of mouse cytokine amplicons were normalized to an internal probe level (GAPDH) from the same samples. The following equations were used to calculate the relative increase in response to GA stimulation compared to the control sample (Enriched DCCM1 sample): […]

[2] = test system: mouse IL-13 mRNA in primary LN cells; assay: Validation: mouse IL-13 mRNA by real-time PCR in LN cells of GA-immunized SJL/J mice (Example IV); settings: for induction of IL-13 mRNA: 20 μg/mL, 6 hours; for IL-13 mRNA Fold Change: normalized to GAPDH
Procedure: as §1, §2, §3, §4, §5, §6, §7, §8, §9

[3] = test system: mouse IL-4 mRNA in primary LN cells; assay: Mouse IL-4 mRNA in LN cells of immunized SJL/J mice stimulated with Copaxone and GMA lots, normalized to Actβ or GAPDH (Example V)
Procedure: (§10) A real-time polymerase chain reaction method was used to measure the expression of cytokine mRNA in GA-stimulated LN cells from GA-immunized SJL/J mice. Normalization of expression with two different housekeeping genes, GAPDH and β-actin, was tested.
(§11) Each group consisted of six female SJL/J mice immunized by injection in all four footpads with a total dose of 250 μg of one lot of GA, or mannitol and no GA. Three Copaxone batches and three GMA batches were used to immunize the mice. CFA was included in both GA and mannitol immunizations. Ten days following immunization, LN cell samples isolated from the immunized mice were each stimulated with a concentration of a Copaxone lot and a GMA lot. A positive control of 2.5 μg/mL ConA treated LN cells and a negative control of 10 μg/mL MBP treated cells were included in each group.
(§12) Therefore, the Q-PCR analysis was repeated on the samples, measuring levels of IL-2, IL-4, IL-5, and IL-13, using both GAPDH and β-actin as reference gene.

[4] = test system: mouse IL-13 mRNA in primary LN cells; assay: Mouse IL-13 mRNA in LN cells of immunized SJL/J mice stimulated with Copaxone and GMA lots, normalized to Actβ or GAPDH (Example V); settings: for 1L-13 mRNA Fold Change: normalized to Actβ; for IL-13 mRNA Fold Change: normalized to GAPDH
Procedure: as §10, §11, §12

[5] = SJL/J, different concentrations of GA vs unstimulated LN cells
[6] = Copaxone: C/A, GMA: B/D, 5 μg/mL
[7] = SJL/J, MBP 10 μg/mL, all PCR runs

L-glutamic acid polymer with L-alanine, L-lysine and L-tyrosine, acetate (salt) [GA]
induction of IL-2 mRNA ([1]; SJL/J, Exp 1): 31.7 fold
induction of IL-2 mRNA ([1]; SJL/J, Exp 2): 27.8 fold
induction of IL-2 mRNA ([1]; SJL/J, Exp 3): 42.0 fold
induction of IL-2 mRNA (in words) [1, 5]: robust induction
induction of IL-13 mRNA ([2]; SJL/J, Exp 1): 17.6 fold
induction of IL-13 mRNA ([2]; SJL/J, Exp 2): 21.3 fold
induction of IL-13 mRNA ([2]; SJL/J, Exp 3): 33.9 fold
induction of IL-13 mRNA (in words) [2, 5]: robust induction
IL-4 cross-potency [3, 6]: 103%
IL-13 cross-potency [4, 6]: 74.8%

Concanavalin A [ConA, reference compound]
IL-2 mRNA Fold Change ([1]; Experiment 1, 2.5 μg/mL): 147.1 fold
IL-2 mRNA Fold Change ([1]; Experiment 2, 2.5 μg/mL): 72.0 fold
IL-2 mRNA Fold Change ([1]; Experiment 3, 2.5 μg/mL): 188.6 fold
IL-13 mRNA Fold Change ([2]; Experiment 1, 2.5 μg/mL): 40.9 fold
IL-13 mRNA Fold Change ([2]; Experiment 2, 2.5 μg/mL): 32.4 fold
IL-13 mRNA Fold Change ([2]; Experiment 3, 2.5 μg/mL): 50.9 fold
IL-4 mRNA Fold Change ([3]; Group 3 (mice immunized with GA-M2 Mylan GMA), 2.5 μg/mL, normalized to Actβ): 43.6 fold
IL-4 mRNA Fold Change ([3]; Group 3 (mice immunized with GA-M2 Mylan GMA), 2.5 μg/mL, normalized to GAPDH): 87.9 fold
IL-4 mRNA Fold Change ([3]; Group 4 (mice immunized with GA-C2 Copaxone), 2.5 μg/mL, normalized to Actβ): 48.3 fold
IL-4 mRNA Fold Change ([3]; Group 4 (mice immunized with GA-C2 Copaxone), 2.5 μg/mL, normalized to GAPDH): 84.8 fold
1L-13 mRNA Fold Change ([4]; Group ID 3, 2.5 μg/mL): 15.6 fold
IL-13 mRNA Fold Change ([4]; Group ID 3, 2.5 μg/mL): 27.4 fold
1L-13 mRNA Fold Change ([4]; Group ID 4, 2.5 μg/mL): 20.4 fold
IL-13 mRNA Fold Change ([4]; Group ID 4, 2.5 μg/mL): 34.8 fold

B1: MBP: myelin basic protein, a negative control (protein, UniProt P02686 1-304, looked up)
Myelin basic protein: MGNHAGKRELNAEKASTNSETNRGESEKKRNLGELSRTTSEDNEVFGEADANQNNGTSSQDTAVTDSKRTADPKNAWQDAHPADPGSRPHLIRLFSRDAPGREDNTFKDRPSESDELQTIQEDSAATSESLDVMASQKRPSQRHGSKYLATASTMDHARHGFLPRHRDTGILDSIGRFFGGDRGAPKRGSGKDSHHPARTAHYGSLPQKSHGRTQDENPVVHFFKNIVTPRTPPPSQGKGRGLSLSRFSWGAEGQRPGFGYGGRASDYKSAHKGFKGVDAQGTLSKIFKLGGRDSRSGSPMARR
IL-2 mRNA Fold Change ([1]; Experiment 1, 10 μg/mL): 1.0 fold
IL-2 mRNA Fold Change ([1]; Experiment 2, 10 μg/mL): 0.9 fold
IL-2 mRNA Fold Change ([1]; Experiment 3, 10 μg/mL): 0.8 fold
IL-2 mRNA expression level in response to MBP treatment [1, 7]: ≤ 2 fold
IL-13 mRNA Fold Change ([2]; Experiment 1, 10 μg/mL): 0.9 fold
IL-13 mRNA Fold Change ([2]; Experiment 2, 10 μg/mL): 1.4 fold
IL-13 mRNA Fold Change ([2]; Experiment 3, 10 μg/mL): 1.2 fold
IL-13 mRNA expression level in response to MBP treatment [2, 7]: ≤ 2 fold
IL-4 mRNA Fold Change ([3]; Group 3 (mice immunized with GA-M2 Mylan GMA), 10 μg/mL, normalized to Actβ): 0.8 fold
IL-4 mRNA Fold Change ([3]; Group 3 (mice immunized with GA-M2 Mylan GMA), 10 μg/mL, normalized to GAPDH): 0.7 fold
IL-4 mRNA Fold Change ([3]; Group 4 (mice immunized with GA-C2 Copaxone), 10 μg/mL, normalized to Actβ): 2.4 fold
IL-4 mRNA Fold Change ([3]; Group 4 (mice immunized with GA-C2 Copaxone), 10 μg/mL, normalized to GAPDH): 1.3 fold
1L-13 mRNA Fold Change ([4]; Group ID 3, 10 μg/mL): 0.7 fold
IL-13 mRNA Fold Change ([4]; Group ID 3, 10 μg/mL): 0.5 fold
1L-13 mRNA Fold Change ([4]; Group ID 4, 10 μg/mL): 1.0 fold
IL-13 mRNA Fold Change ([4]; Group ID 4, 10 μg/mL): 1.2 fold
